Source: patent US20050009094A1 (priority 2001, published 2005)

Legend:
PrP^Sc exposed neurons = conditions: cited from earlier work
14-3-3 gene expression = assay: Expression of 14-3-3 gene in G. cydonium after exposition to PCB118 (Northern and Western Blotting); format: in vivo, Geodia cydonium; conditions: 2 μg PCB 118/g wet weight, incubation 0.5 to 6 days
From the text: The analyses were accomplished by means of Northern Blotting [14-3-3 probe] (A) or Western Blotting [14-3-3 antibody] (B).
The employed method was PCR cloning.
The detection of expression of the 14-3-3 proteins on the protein level is accomplished by using antibodies. To this aim, one can either employ commercial antibodies (e.g. from the Calbiochem/Oncogene company) or antibodies raised against the recombinant invertebrate-14-3-3 protein from Geodia cydonium. […] The signals can again be quantified by using the chemiluminescence method. The tissue extracts can e.g. be prepared by homogenisation in a phosphate buffer containing 1 mM of EDTA and 1 mM of phenylmethylsulfonyl fluoride.
The 14-3-3-cDNA from the sea sponge Geodia cydonium was used as a gene probe for the detection of expression of the 14-3-3 proteins on the mRNA-level and the respective antibodies were used for determining the amount of protein. In the accomplished keeping experiments, PCB 118 was used as the model PCB.
1 ml of PCB118 (0.1 mg/ml in corn oil) were injected in 40 g sponge tissue. The samples were incubated in sea water for up to 6 days in 20 l aquariums at 17° C. with continuous aeration; the water was exchanged one time at day 2. Aliquot portions of the tissue (each about 200 mg) were withdrawn at the time zero or after an incubation period of 0.5; 1; 3; 5 and 6 days. […]

CCOC(=O)Nc1ccc(NCc2ccc(F)cc2)nc1N [Flupirtin]
effect counteracting the neurotoxic peptide PrP106-126 (PrP^Sc exposed neurons): cytoprotective effect
effect on PrP^Sc exposed neurons (PrP^Sc exposed neurons): protective effect
extent of apoptosis caused by PrP106-126 (PrP^Sc exposed neurons): reduces

CC12CC3CC(C)(C1)CC(N)(C3)C2 [Memantin]
effect on PrP^Sc exposed neurons (PrP^Sc exposed neurons): protective effect

Clc1ccc(-c2cc(Cl)c(Cl)cc2Cl)cc1Cl [PCB118]
expression of the 14-3-3 gene (mRNA and protein) (14-3-3 gene expression): very high values
